Measured values from patent publication US11267826B2, “Penicillin-binding protein inhibitors” (priority 2017, dated 2022).

Tests used:
E. coli K12 PBP1a/b = assay: Bocillin FL competition binding assay, PBP1a/1b combined; design: species or system Escherichia coli K12; settings: 15 min pre-incubation, PBP 1a/1b combined
How it was run: (§1)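 E. coli K12 membrane extracts (100 µg protein) pre-incubated 15 min with compound (0.005–2,480 µg/mL) in pH 7 phosphate/350 mM NaCl, then labelled with Bocillin FL 30 min at 35°C; SDS-PAGE fluorescence (ex 450/em 520 nm), μg/mL reported. PBP1a/1b unresolved, reported combined.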

E. coli PBP3 = target: T1, E. coli PBP3 (Escherichia coli, UniProt P0AD68); assay: Bocillin FL competition binding assay, PBP3; design: species or system Escherichia coli K12; settings: 15 min pre-incubation
T1 construct: 100 μg's of total membrane protein extracts containing PBPs; endogenous in cells; host or cells: Escherichia coli K12, membrane protein fraction
T1 sequence (P0AD68 1-577): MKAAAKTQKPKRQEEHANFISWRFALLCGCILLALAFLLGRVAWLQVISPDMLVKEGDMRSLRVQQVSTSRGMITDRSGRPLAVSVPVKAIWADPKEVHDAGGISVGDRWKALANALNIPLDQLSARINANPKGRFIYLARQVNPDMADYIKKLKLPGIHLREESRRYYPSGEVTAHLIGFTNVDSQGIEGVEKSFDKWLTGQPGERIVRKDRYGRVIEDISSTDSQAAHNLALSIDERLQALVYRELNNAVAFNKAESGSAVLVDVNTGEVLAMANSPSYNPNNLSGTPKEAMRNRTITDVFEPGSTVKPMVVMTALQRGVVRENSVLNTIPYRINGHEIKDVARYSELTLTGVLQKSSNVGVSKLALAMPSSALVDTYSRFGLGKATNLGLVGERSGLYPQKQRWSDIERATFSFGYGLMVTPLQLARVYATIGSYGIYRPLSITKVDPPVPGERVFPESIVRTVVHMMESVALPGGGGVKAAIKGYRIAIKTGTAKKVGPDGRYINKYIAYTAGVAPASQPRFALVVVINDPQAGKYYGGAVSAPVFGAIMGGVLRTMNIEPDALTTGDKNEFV
How it was run: as §1

S. aureus ATCC 29213 = assay: Broth microdilution MIC assay, S. aureus; format: cell-based; settings: Staphylococcus aureus, ATCC29213; broth microdilution, 16-20 hours at 37° C.; read-out: S. aureus 29213 MIC
How it was run: (§2)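 Per CLSI: log-phase cultures (3-5 h, 37° C) seeded at 5×10^5 CFU/mL into cation-supplemented Mueller-Hinton broth containing 2-fold compound dilutions. After 16-20 h at 37° C, MIC taken visually as lowest growth-free well, for S. aureus ATCC 29213 and E. coli 901C.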

[1] = system: hyper-permeable E. coli 901C; assay: Broth microdilution MIC assay, hyper-permeable E. coli; format: cell-based; settings: Escherichia coli, read-out: E. coli 901C MIC
How it was run: as §2

E. coli PBP2 = target: T2, E. coli PBP2 (Escherichia coli, UniProt P0AD65); assay: Bocillin FL competition binding assay, PBP2; design: species or system Escherichia coli K12; settings: 15 min pre-incubation
T2 construct: 100 μg's of total membrane protein extracts containing PBPs; endogenous in cells; host or cells: Escherichia coli K12, membrane protein fraction
T2 sequence (P0AD65 whole entry): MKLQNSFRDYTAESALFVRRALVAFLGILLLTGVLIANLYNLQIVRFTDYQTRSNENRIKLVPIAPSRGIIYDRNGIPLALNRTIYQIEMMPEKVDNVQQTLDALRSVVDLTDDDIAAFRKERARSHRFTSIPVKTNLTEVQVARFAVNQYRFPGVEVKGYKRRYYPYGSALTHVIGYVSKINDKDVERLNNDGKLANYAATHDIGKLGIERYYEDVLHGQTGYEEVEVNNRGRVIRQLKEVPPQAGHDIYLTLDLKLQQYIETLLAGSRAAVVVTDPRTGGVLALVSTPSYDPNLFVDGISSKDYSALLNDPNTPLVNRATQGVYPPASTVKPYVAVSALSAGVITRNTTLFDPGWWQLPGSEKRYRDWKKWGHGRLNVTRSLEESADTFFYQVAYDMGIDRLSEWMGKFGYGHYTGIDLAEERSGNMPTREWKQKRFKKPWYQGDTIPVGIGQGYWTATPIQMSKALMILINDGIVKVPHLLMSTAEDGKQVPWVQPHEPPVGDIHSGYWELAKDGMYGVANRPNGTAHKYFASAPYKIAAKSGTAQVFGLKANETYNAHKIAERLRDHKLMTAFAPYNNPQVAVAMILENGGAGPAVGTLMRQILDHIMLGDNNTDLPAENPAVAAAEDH
How it was run: as §1

| Compound | E. coli K12 PBP1a/b Potency (E. coli K12 PBP1a/b) | E. coli PBP3 Potency (E. coli PBP3) | MIC (S. aureus ATCC 29213) [µg/mL] | MIC [1] [µg/mL] | E. coli PBP2 Potency (E. coli PBP2) |
| --- | --- | --- | --- | --- | --- |
| Nc1nc(/C(=N/OCC(=O)N2CCNCC2)C(=O)N[C@H]2Cc3cccc(C(=O)O)c3OB2O)cs1 [Example 58, (R,Z)-3-(2-(2-aminothiazol-4-yl)-2-((2-oxo-2-(piperazin-1-yl)ethoxy)imino)acetamido)-2-hydroxy-3,4-dihydro-2H-benzo[e][1,2]oxaborinine-8-carboxylic Acid] | B (B represents a potency between 64 and 1000 μg/mL inclusive) | C (C represents a potency of <64 μg/mL) | > 128 | < 64 | C (C represents a potency of <64 μg/mL) |
| CN(C)C(=O)CO/N=C(\C(=O)N[C@H]1Cc2cccc(C(=O)O)c2OB1O)c1csc(N)n1 [Example 60, (R,Z)-3-(2-(2-aminothiazol-4-yl)-2-((2-(dimethylamino)-2-oxoethoxy)imino)acetamido)-2-hydroxy-3,4-dihydro-2H-benzo[e][1,2]oxaborinine-8-carboxylic Acid] | B (B represents a potency between 64 and 1000 μg/mL inclusive) | C (C represents a potency of <64 μg/mL) | > 128 | < 64 | C (C represents a potency of <64 μg/mL) |
| N#CC1CCC(NC(=O)CO/N=C(\C(=O)N[C@H]2Cc3cccc(C(=O)O)c3OB2O)c2csc(N)n2)CC1 (stereo partly drawn) [Example 62, (R)-3-((Z)-2-(2-aminothiazol-4-yl)-2-((2-(((1r,4R)-4-cyanocyclohexyl)amino)-2-oxoethoxy)imino)acetamido)-2-hydroxy-3,4-dihydro-2H-benzo[e][1,2]oxaborinine-8-carboxylic Acid] | B (B represents a potency between 64 and 1000 μg/mL inclusive) | C (C represents a potency of <64 μg/mL) | > 128 | < 64 | B (B represents a potency between 64 and 1000 μg/mL inclusive) |
| N=C(NCCN)c1ccc(OCCO/N=C(\C(=O)N[C@H]2Cc3cccc(C(=O)O)c3OB2O)c2csc(N)n2)cc1 [Example 64, (R,Z)-3-(2-((2-(4-(N-(2-aminoethyl)carbamimidoyl)phenoxy)ethoxy)imino)-2-(2-aminothiazol-4-yl)acetamido)-2-hydroxy-3,4-dihydro-2H-benzo[e][1,2]oxaborinine-8-carboxylic Acid] | C (C represents a potency of <64 μg/mL) | C (C represents a potency of <64 μg/mL) | > 128 | < 64 | B (B represents a potency between 64 and 1000 μg/mL inclusive) |
| NCCCC[C@H](NC(=O)CO/N=C(\C(=O)N[C@H]1Cc2cccc(C(=O)O)c2OB1O)c1csc(N)n1)C(=O)O [Example 65, (R)-3-((Z)-2-((2-(((S)-5-amino-1-carboxypentyl)amino)-2-oxoethoxy)imino)-2-(2-aminothiazol-4-yl)acetamido)-2-hydroxy-3,4-dihydro-2H-benzo[e][1,2]oxaborinine-8-carboxylic] | C (C represents a potency of <64 μg/mL) | C (C represents a potency of <64 μg/mL) | > 128 | < 64 | B (B represents a potency between 64 and 1000 μg/mL inclusive) |
| NCCCC[C@@H](NC(=O)CO/N=C(\C(=O)N[C@H]1Cc2cccc(C(=O)O)c2OB1O)c1csc(N)n1)C(=O)O [Example 66, (R)-3-((Z)-2-((2-(((R)-5-amino-1-carboxypentyl)amino)-2-oxoethoxy)imino)-2-(2-aminothiazol-4-yl)acetamido)-2-hydroxy-3,4-dihydro-2H-benzo[e][1,2]oxaborinine-8-carboxylic Acid] | C (C represents a potency of <64 μg/mL) | C (C represents a potency of <64 μg/mL) | > 128 | < 64 | B (B represents a potency between 64 and 1000 μg/mL inclusive) |
| NCCCCCNC(=O)CO/N=C(\C(=O)N[C@H]1Cc2cccc(C(=O)O)c2OB1O)c1csc(N)n1 [Example 67, (R,Z)-3-(2-((2-((5-aminopentyl)amino)-2-oxoethoxy)imino)-2-(2-aminothiazol-4-yl)acetamido)-2-hydroxy-3,4-dihydro-2H-benzo[e][1,2]oxaborinine-8-carboxylic Acid] | B (B represents a potency between 64 and 1000 μg/mL inclusive) | C (C represents a potency of <64 μg/mL) | > 128 | < 64 | B (B represents a potency between 64 and 1000 μg/mL inclusive) |
| CNC(=O)C(C)(C)O/N=C(\C(=O)N[C@H]1Cc2cccc(C(=O)O)c2OB1O)c1csc(N)n1 [Example 69, (R,Z)-3-(2-(2-aminothiazol-4-yl)-2-(((2-methyl-1-(methylamino)-1-oxopropan-2-yl)oxy)imino)acetamido)-2-hydroxy-3,4-dihydro-2H-benzo[e][1,2]oxaborinine-8-carboxylic Acid] | C (C represents a potency of <64 μg/mL) | C (C represents a potency of <64 μg/mL) | > 128 | < 64 | C (C represents a potency of <64 μg/mL) |
| CNC(=O)C(C)O/N=C(\C(=O)N[C@H]1Cc2cccc(C(=O)O)c2OB1O)c1csc(N)n1 (stereo partly drawn) [Example 70, (3R)-3-((Z)-2-(2-aminothiazol-4-yl)-2-(((1-(methylamino)-1-oxopropan-2-yl)oxy)imino)acetamido)-2-hydroxy-3,4-dihydro-2H-benzo[e][1,2]oxaborinine-8-carboxylic Acid] | C (C represents a potency of <64 μg/mL) | C (C represents a potency of <64 μg/mL) | > 128 | < 64 | C (C represents a potency of <64 μg/mL) |
| CC(O/N=C(\C(=O)N[C@H]1Cc2cccc(C(=O)O)c2OB1O)c1csc(N)n1)C(=O)O (stereo partly drawn) [Example 71, (3R)-3-((Z)-2-(2-aminothiazol-4-yl)-2-((1-carboxyethoxy)imino)acetamido)-2-hydroxy-3,4-dihydro-2H-benzo[e][1,2]oxaborinine-8-carboxylic Acid] | C (C represents a potency of <64 μg/mL) | C (C represents a potency of <64 μg/mL) | > 128 | < 64 | C (C represents a potency of <64 μg/mL) |
| CC(C)(O/N=C(\C(=O)N[C@H]1Cc2cccc(C(=O)O)c2OB1O)c1csc(N)n1)C(N)=O [Example 72, (R,Z)-3-(2-(((1-amino-2-methyl-1-oxopropan-2-yl)oxy)imino)-2-(2-aminothiazol-4-yl)acetamido)-2-hydroxy-3,4-dihydro-2H-benzo[e][1,2]oxaborinine-8-carboxylic Acid] | C (C represents a potency of <64 μg/mL) | C (C represents a potency of <64 μg/mL) | > 128 | < 64 | C (C represents a potency of <64 μg/mL) |
| CC(O/N=C(\C(=O)N[C@H]1Cc2cccc(C(=O)O)c2OB1O)c1csc(N)n1)C(N)=O (stereo partly drawn) [Example 73, (3R)-3-((Z)-2-(((1-amino-1-oxopropan-2-yl)oxy)imino)-2-(2-aminothiazol-4-yl)acetamido)-2-hydroxy-3,4-dihydro-2H-benzo[e][1,2]oxaborinine-8-carboxylic Acid] | C (C represents a potency of <64 μg/mL) | C (C represents a potency of <64 μg/mL) | > 128 | < 64 | C (C represents a potency of <64 μg/mL) |
| CC(C)(O/N=C(\C(=O)N[C@H]1Cc2cccc(C(=O)O)c2OB1O)c1csc(N)n1)C(=O)N[C@@H](CO)C(=O)O [Example 74, (R)-3-((Z)-2-(2-aminothiazol-4-yl)-2-(((1-(((S)-1-carboxy-2-hydroxyethyl)amino)-2-methyl-1-oxopropan-2-yl)oxy)imino)acetamido)-2-hydroxy-3,4-dihydro-2H-benzo[e][1,2]oxaborinine-8-carboxylic Acid] | C (C represents a potency of <64 μg/mL) | C (C represents a potency of <64 μg/mL) | > 128 | < 64 | C (C represents a potency of <64 μg/mL) |
| CC(C)(O/N=C(\C(=O)N[C@H]1Cc2cccc(C(=O)O)c2OB1O)c1csc(N)n1)C(=O)NCC(=O)O [Example 75, (R,Z)-3-(2-(2-aminothiazol-4-yl)-2-(((1-((carboxymethyl)amino)-2-methyl-1-oxopropan-2-yl)oxy)imino)acetamido)-2-hydroxy-3,4-dihydro-2H-benzo[e][1,2]oxaborinine-8-carboxylic Acid] | C (C represents a potency of <64 μg/mL) | C (C represents a potency of <64 μg/mL) | > 128 | < 64 | C (C represents a potency of <64 μg/mL) |
